What is called Kd is the constant that tells how readily two partners part at equilibrium. Read a low Kd as tighter binding.

Numbering of substitutions follows the chain as printed.

The record followed here is paper PMC5544727, “The type IV pilus assembly ATPase PilB functions as a signaling protein to regulate exopolysaccharide production in Myxococcus xanthus” (Scientific Reports, 2017).

Holding throughout (assay type): binding
Assay [1] has as its target T1, PilB^WA (T. thermophilus PilB/PilF, TtPilB) (Thermus thermophilus, UniProt Q5SLC9, K654A).
T1 sequence (Q5SLC9 1-889 K654A): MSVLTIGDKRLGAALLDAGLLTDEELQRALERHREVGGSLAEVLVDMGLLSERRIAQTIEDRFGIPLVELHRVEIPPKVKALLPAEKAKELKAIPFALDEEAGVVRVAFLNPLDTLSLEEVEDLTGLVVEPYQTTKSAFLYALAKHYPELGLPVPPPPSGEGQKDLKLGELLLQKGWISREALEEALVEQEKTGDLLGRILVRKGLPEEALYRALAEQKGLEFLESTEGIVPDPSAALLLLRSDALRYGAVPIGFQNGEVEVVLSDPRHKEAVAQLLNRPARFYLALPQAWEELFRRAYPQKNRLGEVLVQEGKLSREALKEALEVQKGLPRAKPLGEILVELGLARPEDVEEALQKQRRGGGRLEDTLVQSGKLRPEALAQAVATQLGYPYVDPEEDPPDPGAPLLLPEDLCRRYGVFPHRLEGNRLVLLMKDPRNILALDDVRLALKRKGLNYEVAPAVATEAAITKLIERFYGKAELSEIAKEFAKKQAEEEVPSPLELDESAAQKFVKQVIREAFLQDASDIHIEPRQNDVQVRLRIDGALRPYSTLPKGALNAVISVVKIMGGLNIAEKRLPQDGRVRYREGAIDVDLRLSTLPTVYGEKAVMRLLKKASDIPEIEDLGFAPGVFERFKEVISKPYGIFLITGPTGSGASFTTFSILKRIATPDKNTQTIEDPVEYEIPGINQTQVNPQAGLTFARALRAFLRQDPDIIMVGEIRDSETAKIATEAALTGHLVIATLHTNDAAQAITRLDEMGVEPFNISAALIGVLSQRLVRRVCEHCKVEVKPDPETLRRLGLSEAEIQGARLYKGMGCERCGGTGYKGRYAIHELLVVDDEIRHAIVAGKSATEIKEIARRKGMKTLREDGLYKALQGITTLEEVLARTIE
Nature of the assay: fluorescence titration of MANT-ATP with purified protein.

Assay [2] deals with T2, PilB^WT (T. thermophilus PilB/PilF, TtPilB) (Thermus thermophilus, UniProt Q72H73). The description is as above.
T2 sequence (Q72H73 entry or part of it): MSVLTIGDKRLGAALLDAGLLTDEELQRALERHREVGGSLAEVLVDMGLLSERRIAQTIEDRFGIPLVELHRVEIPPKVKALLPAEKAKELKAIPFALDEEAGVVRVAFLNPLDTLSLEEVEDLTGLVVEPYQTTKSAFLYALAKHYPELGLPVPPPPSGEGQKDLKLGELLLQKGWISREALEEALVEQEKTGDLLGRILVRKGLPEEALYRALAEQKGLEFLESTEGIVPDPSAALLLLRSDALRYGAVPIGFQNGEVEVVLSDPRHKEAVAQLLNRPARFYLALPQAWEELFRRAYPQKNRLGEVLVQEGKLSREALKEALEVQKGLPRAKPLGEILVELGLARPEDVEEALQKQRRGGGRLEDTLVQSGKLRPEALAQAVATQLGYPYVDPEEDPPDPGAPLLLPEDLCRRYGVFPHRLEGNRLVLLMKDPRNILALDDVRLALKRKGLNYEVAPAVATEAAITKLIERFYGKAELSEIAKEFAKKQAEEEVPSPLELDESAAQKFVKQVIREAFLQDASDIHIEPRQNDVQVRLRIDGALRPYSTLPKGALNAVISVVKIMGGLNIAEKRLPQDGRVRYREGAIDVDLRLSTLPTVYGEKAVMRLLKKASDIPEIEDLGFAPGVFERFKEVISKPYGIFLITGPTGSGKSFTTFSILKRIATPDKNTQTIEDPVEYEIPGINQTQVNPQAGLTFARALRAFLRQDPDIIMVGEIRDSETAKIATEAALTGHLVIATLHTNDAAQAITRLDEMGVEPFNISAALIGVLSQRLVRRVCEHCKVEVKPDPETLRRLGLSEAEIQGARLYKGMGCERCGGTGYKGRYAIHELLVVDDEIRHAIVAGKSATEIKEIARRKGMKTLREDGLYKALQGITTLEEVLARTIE
Assay [3] addresses T3, PilB^WB (T. thermophilus PilB/PilF, TtPilB) (Thermus thermophilus, UniProt Q5SLC9, E718A).
T3 sequence (Q5SLC9 1-889 E718A): T1 sequence (Q5SLC9 1-889 K654A) with A654K, E718A
Described as above.

In assay [4] the target is T2, PilB^WT (T. thermophilus PilB/PilF, TtPilB). Nature of the assay: near-UV CD spectral shift, […] ligand.
For assay [5], the target named is T3, PilB^WB (T. thermophilus PilB/PilF, TtPilB). In words: near-UV CD spectral shift, […] ligand.
The target in assay [6] is T2, PilB^WT (T. thermophilus PilB/PilF, TtPilB). Nature of the assay: DSF thermal stabilization, […] ligand (no Kd).
For assay [7], the target named is T3, PilB^WB (T. thermophilus PilB/PilF, TtPilB). In words: DSF thermal stabilization, […] ligand (no Kd).
Assay [8] concerns the target T1, PilB^WA (T. thermophilus PilB/PilF, TtPilB). Nature of the assay: near-UV CD spectral shift (less pronounced than WT), […] ligand.

For `CNc1ccccc1C(=O)O[C@H]1[C@@H](O)[C@H](n2cnc3c(N)ncnc32)O[C@@H]1CO[P@@](=O)(O)O[P@](=O)(O)OP(=O)(O)O` (mixture of isomers) [MANT-ATP, 2′-/3′-O-(N-methylanthraniloyl) adenosine-5′-triphosphate], the values for the dissociation constant (Kd) in assay [1], in assay [2] and in assay [3] were 1230 nM, 170 nM and 190 nM, respectively.

On to `Nc1ncnc2c1ncn2[C@@H]1O[C@H](COP(=O)(O)OP(=O)(O)O)[C@@H](O)[C@H]1O` [ADP], for which the “near-UV CD spectral shift, 0.1 mM ligand” value is “The addition of ADP also shifted the spectra of PilB^WT and PilB^WB, but not that of PilB^WA” in assay [4]; “The addition of ADP also shifted the spectra of PilB^WT and PilB^WB, but not that of PilB^WA” in assay [5].

Turning to `Nc1ncnc2c1ncn2[C@@H]1O[C@H](CO[P@](=O)(O)O[P@](=O)(O)NP(=O)(O)O)[C@@H](O)[C@H]1O` [AMP-PNP, adenosine 5′-(β,γ-imido)triphosphate], the “DSF thermal stabilization, 0.4 mM ligand (no Kd)” value in assay [6] was “This nucleotide stabilized both PilB^WT and PilB^WB, resulting in the disappearance of the first unfolding transition”; in assay [7], “This nucleotide stabilized both PilB^WT and PilB^WB, resulting in the disappearance of the first unfolding transition”.

Consider `Nc1ncnc2c1ncn2[C@@H]1O[C@H](COP(=O)(O)OP(=O)(O)OP(=O)(O)O)[C@@H](O)[C@H]1O` [ATP], for which the “near-UV CD spectral shift (less pronounced than WT), 0.1 mM ligand” value in assay [8] was “the shift for PilB^WA is less pronounced compared to those seen for the other two”.
